Results as given in US10399940B2, “Substituted pyrrolidines and methods of use” (AbbVie S.à.r.l., priority 2016, dated 2019).
Like-named read-outs stand apart in the source and are kept apart here.

Target: T1, F508delCFTR (Homo sapiens, UniProt P13569, DEL508-508)
T1 construct: expressed in transfected cells; host or cells: CFBE41o- (human lung derived epithelial cell line), doxycycline-inducible expression
Experiment: Cell Surface Expression-Horse Radish Peroxidase (CSE-HRP) assay
Type: cell-based
Conditions: CFBE41o-F508delCFTR-HRP cells; for Maximum % activity (with co-corrector): with co-corrector (2 μM); for Maximum % activity (with co-corrector) / Maximum % activity (without co-corrector): normalized to on-plate positive control, highest concentration 20 μM
Procedure, shortened: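 CFBE41o- cells expressed F508delCFTR with HRP in the fourth exofacial loop, induced by 0.5 μg/mL doxycycline for 72 h at 37 °C. Compounds alone or with 2 μM co-corrector ran 18–24 h at 33 °C, 8-point 3-fold from 20 μM. Washed-cell luminol luminescence was normalized to DMSO and positive control, fitted sigmoidally for EC50 (three plates).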

[1] = test compound without co-corrector, 18-24 hours at 33° C., read-out: EC50 (without co-corrector)
[2] = with co-corrector (2 μM of 3-[(2R,4R)-4-({[1-(2,2-difluoro-1,3-benzodioxol-5-yl)cyclopropyl]carbonyl}amino)-7-methoxy-3,4-dihydro-2H-chromen-2-yl]benzoic acid), read-out: EC50 (with co-corrector)

T1 sequence (P13569 with tags, fused parts or gaps DEL508-508): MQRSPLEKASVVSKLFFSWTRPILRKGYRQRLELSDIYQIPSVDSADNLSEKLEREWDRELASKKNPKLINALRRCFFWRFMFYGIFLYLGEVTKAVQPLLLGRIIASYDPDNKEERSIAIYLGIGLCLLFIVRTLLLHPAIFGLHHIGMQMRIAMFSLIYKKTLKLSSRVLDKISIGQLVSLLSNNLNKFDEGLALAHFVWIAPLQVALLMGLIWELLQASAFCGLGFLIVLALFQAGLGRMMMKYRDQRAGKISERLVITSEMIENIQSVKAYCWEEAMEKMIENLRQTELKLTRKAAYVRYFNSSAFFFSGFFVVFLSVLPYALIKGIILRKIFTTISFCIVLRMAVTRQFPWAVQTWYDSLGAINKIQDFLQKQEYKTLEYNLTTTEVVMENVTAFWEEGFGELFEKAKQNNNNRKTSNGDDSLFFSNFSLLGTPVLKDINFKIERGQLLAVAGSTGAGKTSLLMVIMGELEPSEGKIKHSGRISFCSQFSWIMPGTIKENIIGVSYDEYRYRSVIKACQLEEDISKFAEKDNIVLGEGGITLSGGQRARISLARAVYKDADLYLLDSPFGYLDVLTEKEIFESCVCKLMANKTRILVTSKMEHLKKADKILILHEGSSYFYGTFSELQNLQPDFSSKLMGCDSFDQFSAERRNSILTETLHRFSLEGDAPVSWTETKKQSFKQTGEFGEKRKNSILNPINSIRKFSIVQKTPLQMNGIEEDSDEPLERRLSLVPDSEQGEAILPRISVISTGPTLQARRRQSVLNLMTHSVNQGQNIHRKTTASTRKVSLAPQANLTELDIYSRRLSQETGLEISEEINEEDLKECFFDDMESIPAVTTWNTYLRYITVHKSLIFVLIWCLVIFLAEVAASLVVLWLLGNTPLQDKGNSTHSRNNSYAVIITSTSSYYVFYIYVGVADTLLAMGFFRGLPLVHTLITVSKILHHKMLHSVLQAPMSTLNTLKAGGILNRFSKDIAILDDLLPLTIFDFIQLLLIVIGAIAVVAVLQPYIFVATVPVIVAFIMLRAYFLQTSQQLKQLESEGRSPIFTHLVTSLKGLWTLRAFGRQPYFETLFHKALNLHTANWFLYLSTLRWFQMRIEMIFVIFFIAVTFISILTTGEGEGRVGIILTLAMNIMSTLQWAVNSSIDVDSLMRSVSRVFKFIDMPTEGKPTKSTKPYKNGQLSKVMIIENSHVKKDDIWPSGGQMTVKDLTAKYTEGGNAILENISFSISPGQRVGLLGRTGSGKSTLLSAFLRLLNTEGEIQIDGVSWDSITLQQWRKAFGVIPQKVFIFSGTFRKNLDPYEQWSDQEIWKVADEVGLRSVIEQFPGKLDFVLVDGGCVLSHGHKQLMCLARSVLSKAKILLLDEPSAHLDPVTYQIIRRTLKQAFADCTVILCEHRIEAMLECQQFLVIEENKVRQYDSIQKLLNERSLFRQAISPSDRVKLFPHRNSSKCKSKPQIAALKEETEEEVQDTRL

| EC50 [1] [µM] | EC50 [2] [µM] | Maximum % activity (with co-corrector) | Maximum % activity (without co-corrector) | Structure (SMILES) |
| --- | --- | --- | --- | --- |
| 1 to 10 | < 1 | +++ (≥350) | ++ (≥100 and <200) | COc1ncc(C(F)(F)F)cc1CO[C@H]1[C@H](C(C)(C)C)[C@@H](C(=O)O)N(C(=O)[C@@H]2CCCO2)[C@H]1c1cccc(Br)c1 [Example 118, (2S,3R,4S,5S)-5-(3-bromophenyl)-3-tert-butyl-4-{[2-methoxy-5-(trifluoromethyl)pyridin-3-yl]methoxy}-1-[(2S)-oxolane-2-carbonyl]pyrrolidine-2-carboxylic acid] |
| 1 to 10 | 1 to 10 | +++ (≥350) | ++ (≥100 and <200) | COc1ncc(C(F)(F)F)cc1CO[C@H]1[C@H](C(C)(C)C)[C@@H](C(=O)O)N(C(=O)[C@@H]2CCCO2)[C@H]1c1cccc(Cl)c1 [Example 119, (2S,3R,4S,5S)-3-tert-butyl-5-(3-chlorophenyl)-4-{[2-methoxy-5-(trifluoromethyl)pyridin-3-yl]methoxy}-1-[(2S)-oxolane-2-carbonyl]pyrrolidine-2-carboxylic acid] |
| 1 to 10 | < 1 | ++ (≥150 and <350) | + (<100) | COc1ncc(C(F)(F)F)cc1CO[C@H]1[C@H](C(C)(C)C)[C@@H](C(=O)O)N(C(=O)[C@@H]2CCCO2)[C@H]1c1cccc(C2CC2)c1 [Example 120, (2S,3R,4S,5S)-3-tert-butyl-5-(3-cyclopropylphenyl)-4-{[2-methoxy-5-(trifluoromethyl)pyridin-3-yl]methoxy}-1-[(2S)-oxolane-2-carbonyl]pyrrolidine-2-carboxylic acid] |
| < 1 | < 1 | ++ (≥150 and <350) | + (<100) | COc1ncc(C(F)(F)F)cc1CO[C@H]1[C@H](C(C)(C)C)[C@@H](C(=O)O)N(C(=O)[C@@H]2CCCO2)[C@H]1c1cccc(C(C)(C)C)c1 [Example 121, (2S,3R,4S,5S)-3-tert-butyl-5-(3-tert-butylphenyl)-4-{[2-methoxy-5-(trifluoromethyl)pyridin-3-yl]methoxy}-1-[(2S)-oxolane-2-carbonyl]pyrrolidine-2-carboxylic acid] |
| > 10 | > 10 | + (<150) | + (<100) | COc1ncc(C(F)(F)F)cc1CO[C@@H]1[C@H](C(C)(C)C)[C@@H](C(=O)O)N(C(=O)[C@@H]2CCCO2)[C@H]1c1cccc(C(C)(C)C)c1 [Example 122, (2S,3R,4R,5S)-3-tert-butyl-5-(3-tert-butylphenyl)-4-{[2-methoxy-5-(trifluoromethyl)pyridin-3-yl]methoxy}-1-[(2S)-oxolane-2-carbonyl]pyrrolidine-2-carboxylic acid] |
| 1 to 10 | < 1 | +++ (≥350) | ++ (≥100 and <200) | COc1ncc(C(F)(F)F)cc1CO[C@H]1[C@H](C(C)(C)C)[C@@H](C(=O)O)N(C(=O)[C@@H]2CCCCO2)[C@H]1c1cccc(Cl)c1 [Example 123, (2S,3R,4S,5S)-3-tert-butyl-5-(3-chlorophenyl)-4-{[2-methoxy-5-(trifluoromethyl)pyridin-3-yl]methoxy}-1-[(2S)-oxane-2-carbonyl]pyrrolidine-2-carboxylic acid] |
| 1 to 10 | < 1 | ++ (≥150 and <350) | + (<100) | COc1ncc(C(F)(F)F)cc1CO[C@H]1[C@H](C(C)(C)C)[C@@H](C(=O)O)N(C(=O)OC(C)C)[C@H]1c1cccc(Br)c1 [Example 124, (2S,3R,4S,5S)-5-(3-bromophenyl)-3-tert-butyl-4-{[2-methoxy-5-(trifluoromethyl)pyridin-3-yl]methoxy}-1-{[(propan-2-yl)oxy]carbonyl}pyrrolidine-2-carboxylic acid] |
| < 1 | < 1 | ++ (≥150 and <350) | + (<100) | COc1ncc(C(F)(F)F)cc1CO[C@H]1[C@H](C(C)(C)C)[C@@H](C(=O)O)N(C(=O)[C@H]2CCCCO2)[C@H]1c1cccc(Cl)c1 [Example 125, (2S,3R,4S,5S)-3-tert-butyl-5-(3-chlorophenyl)-4-{[2-methoxy-5-(trifluoromethyl)pyridin-3-yl]methoxy}-1-[(2R)-oxane-2-carbonyl]pyrrolidine-2-carboxylic acid] |
| > 10 | > 10 | + (<150) | + (<100) | COc1ncc(C(F)(F)F)cc1CO[C@@H]1[C@H](C(C)(C)C)[C@@H](C(=O)O)N(C(=O)[C@@H]2CCCO2)[C@H]1c1ccccc1Br [Example 126, (2S,3R,4R,5S)-5-(2-bromophenyl)-3-tert-butyl-4-{[2-methoxy-5-(trifluoromethyl)pyridin-3-yl]methoxy}-1-[(2S)-oxolane-2-carbonyl]pyrrolidine-2-carboxylic acid] |
| > 10 | > 10 | + (<150) | + (<100) | COc1ncc(C(F)(F)F)cc1CO[C@H]1[C@H](C(C)(C)C)[C@@H](C(=O)O)N(C(=O)[C@@H]2CCCO2)[C@H]1c1ccnn1C(C)C [Example 127, (2S,3R,4S,5S)-3-tert-butyl-4-{[2-methoxy-5-(trifluoromethyl)pyridin-3-yl]methoxy}-1-[(2S)-oxolane-2-carbonyl]-5-[1-(propan-2-yl)-1H-pyrazol-5-yl]pyrrolidine-2-carboxylic acid] |
| 1 to 10 | < 1 | +++ (≥350) | ++ (≥100 and <200) | COc1ncc(C(F)(F)F)cc1CO[C@H]1[C@H](C(C)(C)C)[C@@H](C(=O)O)N(C(=O)[C@@H]2CCCCO2)[C@H]1c1ccccc1C1CC1 [Example 128, (2S,3R,4S,5S)-3-tert-butyl-5-(2-cyclopropylphenyl)-4-{[2-methoxy-5-(trifluoromethyl)pyridin-3-yl]methoxy}-1-[(2S)-oxane-2-carbonyl]pyrrolidine-2-carboxylic acid] |
| 1 to 10 | < 1 | +++ (≥350) | ++ (≥100 and <200) | COc1ncc(C(F)(F)F)cc1CO[C@H]1[C@H](C(C)(C)C)[C@@H](C(=O)O)N(C(=O)[C@@H]2CCCO2)[C@H]1c1ccccc1C [Example 129, (2S,3R,4S,5S)-3-tert-butyl-4-{[2-methoxy-5-(trifluoromethyl)pyridin-3-yl]methoxy}-5-(2-methylphenyl)-1-[(2S)-oxolane-2-carbonyl]pyrrolidine-2-carboxylic acid] |
| < 1 | < 1 | +++ (≥350) | ++ (≥100 and <200) | COc1ncc(C2CCC2)cc1CO[C@H]1[C@H](C(C)(C)C)[C@@H](C(=O)O)N(C(=O)[C@@H]2CCCO2)[C@H]1c1ccccc1C(C)C [Example 130, (2S,3R,4S,5S)-3-tert-butyl-4-[(5-cyclobutyl-2-methoxypyridin-3-yl)methoxy]-1-[(2S)-oxolane-2-carbonyl]-5-[2-(propan-2-yl)phenyl]pyrrolidine-2-carboxylic acid] |
